Experimental data from patent publication US20210368788A1, “METHODS FOR USING ANTIMICROBIAL COMPOSITIONS” (Next Science IP Holdings Pty Ltd, priority 2016, published 2021).

Test: Testing of lysozyme amount for efficacy (method not described)
Settings: 0.08 g lysozyme per kg of composition

lysozyme
lowest amount exhibiting some efficacy: 80 ppm
